# Where two headings read alike, the source gives them in different places.
# Key:
# conscious mice = assay: Normobaric hypoxia test (96% nitrogen / 4% oxygen) in conscious mice; format: in vivo; conditions: 50 mg/kg i.p.; for Survival time / response vs control in vivo at 50 mg/kg: 30 min before; for Survival time: three series with controls 6.32, 5.78 and 3.05 min; for response vs control in vivo at 50 mg/kg / responders at 50 mg/kg: Mus musculus, ip; for response vs control in vivo at 50 mg/kg: control = 100, read-out: Survival time, % (relative to control group); for responders at 50 mg/kg: protected = survival twice as long as control group, read-out: Protection
# Excerpt: The antihypoxic activity was investigated on conscious mice under normobaric hypoxia. Five male mice each were placed in a glass cylinder of 3 liters volume, which a gaseous mixture containing 96% of nitrogen and 4% of oxygen was bubbled through. The interval passing from the accomodation of the animals until the cessation of their respiratory movement was registered as survival time. Animals surviving a time of two times as long as that of the control group, were considered to be protected.
# Ten animals each were intraperitoneally (i.p.) given a dose of 50 mg/kg of body-weight (hereinafter abbreviated: mg/kg) each of the substances 30 minutes before the accommodation in the glass cylinders. The average time of survival, the percentage of elongation of survival time in comparison to that of the control group and the percentage of the animals protected are shown in Table I.
# mice [1] = assay: Asphyxial anoxia test; format: in vivo; conditions: Mus musculus; oral, mice starved 16 hours, 1 hour after treatment; protected = survival longer by 30% than control; probit analysis
# Description: (§1) The antihypoxic effect of the compounds according to the invention was proven also by using the methods of asphyxial anoxia and hypobaric hypoxia. These investigations were carried out by oral administration also proving the oral efficiency which makes possible use of the active compounds according to the invention in a tablet form.
# Mice starved for 16 hours were orally treated with the compounds according to the invention and after one hour, they were placed into well-closed glass bottles of 100 ml volume. The interval passing from closing the bottle until the cessation of the respiratory movement was registered as survival time. Animals surviving longer by 30% than that of average survival time of the control group, were considered to be protected.
# (§2) In the cases of both methods, the ED50 values, i.e. the dose protecting half of the treated animals from the hypoxia, were calculated by using probit analysis.
# mice [2] = assay: Hypobaric hypoxia test; format: in vivo; conditions: Mus musculus; oral, mice starved 16 hours, 170 Hgmm, 1 hour after treatment; protected = survival twice control; probit analysis
# Description: as §1
# Mice starved for 16 hours were orally treated with the compounds according to the invention, and placed into a desiccator one hour following the treatment. The pressure in the desiccator was reduced to 170 Hgmm within 20 seconds and the survival time was registered from this time until the cessation of respiratory movement. Animals surviving twice as long as the average survival time of the control group were considered to be protected.
# as §2
# Toxicity (LD50) on mice = conditions: mouse, in vivo
# Description: The toxicity of the active compound of Example 35a according to the invention was determined on mice.
Structure (SMILES),Survival time (conscious mice),response vs control in vivo at 50 mg/kg (conscious mice),responders at 50 mg/kg (conscious mice),ED50 (mice [1]),ED50 (mice [2]),"LD50 (Toxicity (LD50) on mice; intravenous, read-out: LD50 intravenously)","LD50 (Toxicity (LD50) on mice; oral, read-out: LD50 orally)"
"CSc1ccc(C(=O)CCN2CCSC2)cc1 [Example 34, 1-(4-methylthiophenyl)-3-(3-thiazolidinyl)propan-1-one]",12.76 min,202%,70%,,,,
O=C(CCN1CCCSC1)c1ccc(-c2ccccc2)cc1 [Example 49],9.72 min,154%,30%,,,,
COc1ccc(C(=O)CCN2CCSC2)c(C)c1 [Example 12],10.28 min,178%,40%,,,,
"O=C(CCN1CCSC1)c1ccccc1 [Example 1, 1-phenyl-3-(thiazolidinyl)propan-1-one]",9.35 min,148%,30%,,,,
"O=C(CCN1CCSC1)c1ccc(F)cc1 [Example 35a, 1-(4-fluorophenyl)-3-(3-thiazolidinyl)propan-1-one]",10.75 min,186%,60%,18.3 mg/kg,58.7 mg/kg,108 mg/kg,646 mg/kg
CCc1ccc(C(=O)CCN2CCSC2)s1 [Example 38],9.95 min,172%,30%,,,,
"O=C(CCN1CCSC1)c1cccs1 [Example 37, 1-(2-thienyl)-3-(3-thiazolidinyl)propan-1-one]",12.22 min,211%,60%,,,,
O=C(CCN1CCSC1)c1ccc(Cl)c(Cl)c1 [Example 19],7.90 min,125%,20%,,,,
COC(=O)C1N(CCC(=O)c2ccc(F)cc2)CSC1(C)C (stereo not drawn) [Example 70],5.78 min,189%,60%,,,,
CC(CN1CCSC1)C(=O)c1ccc(Br)cc1 (stereo not drawn) [Example 30],8.40 min,145%,40%,,,,
O=C(CCN1CCSC1)c1ccc(Br)cc1 [Example 18],10.58 min,167%,50%,,,,
CC(CN1CCSC1)C(=O)c1cccs1 (stereo not drawn) [Example 41],8.91 min,154%,20%,,,,
CC(CN1CCSC1)C(=O)c1ccc(F)cc1 (stereo not drawn) [Example 27],5.32 min,174%,20%,,,,
O=C(CCN1CCSC1)c1ccc(Cl)s1 [Example 39],10.43 min,180%,40%,,,,
O=C(CCN1CCSC1)c1ccc(Cl)cc1 [Example 17],11.00 min,174%,60%,55 mg/kg,60 mg/kg,,
CC(CN1CCSC1)C(=O)c1ccccc1 (stereo not drawn) [Example 22],9.27 min,147%,30%,,,,
COc1ccc(C(=O)CCN2CCSC2)cc1 [Example 8],8.27 min,131%,20%,,,,
O=C(CCN1CCSC1)c1cccc([N+](=O)[O-])c1 [Example 20],7.85 min,136%,20%,,,,

# Reference: US5096902A, “Heterocyclic compounds containing nitrogen and sulfur, pharmaceutical compositions containing them and process for preparing same” (Richter Gedeon Vegyeszeti Gyar Rt., priority 1989, dated 1992)
